Legend:
[1] = tested on: SiHa; experiment: Cytotoxicity against human SiHa cells assessed as reduction in cell viability after 72 hrs by MTT assay; type: functional, cell-based
[2] = tested on: HaCaT; experiment: Induction of apoptosis in human HaCaT cells assessed as early apoptotic cells at 40 nM after 24 hrs by Annexin V/propidium iodide-staining based flow cytometry (reference value: 0.23 +/- 0.01%); type: cell-based; conditions: 0.04 µM
[3] = tested on: HaCaT; experiment: Cytotoxicity against human HaCaT cells assessed as reduction in cell viability after 72 hrs by MTT assay; type: cell-based
[4] = tested on: NCI-H661; experiment: Cytotoxicity against human NCI-H661 cells assessed as reduction in cell viability after 72 hrs by MTT assay; type: functional, cell-based; conditions: NCI-H661, 72 h
[5] = tested on: A549; experiment: Cytotoxicity against human A549 cells assessed as reduction in cell viability after 72 hrs by MTT assay; type: functional, cell-based; conditions: A549, 72 h
[6] = tested on: HaCaT; experiment: Induction of apoptosis in human HaCaT cells assessed as necrotic cells at 40 nM after 24 hrs by Annexin V/propidium iodide-staining based flow cytometry (reference value: 1.88 +/- 0.02%); type: cell-based; conditions: 0.04 µM
[7] = tested on: NCI-H460; experiment: Cytotoxicity against human NCI-H460 cells assessed as reduction in cell viability after 72 hrs by MTT assay; type: functional, cell-based; conditions: NCI-H460, 72 h
[8] = Cytotoxicity against mouse L5178B1 cells transfected with pHa MDR1/A retrovirus assessed as reduction in cell viability after 72 hrs by MTT assay; type: functional, cell-based; conditions: MDR1, 72 h
[9] = Cytotoxicity against human NCI-H460/R cells transfected with MDR assessed as reduction in cell viability after 72 hrs by MTT assay; type: functional, cell-based; conditions: NCI-H460, 72 h
[10] = Cytotoxicity against mouse L5178 cells assessed as reduction in cell viability after 72 hrs by MTT assay; type: functional, cell-based; conditions: L5178, 72 h
[11] = tested on: NCI-H460; experiment: Induction of apoptosis in human NCI-H460 cells assessed as early apoptotic cells at 40 nM after 24 hrs by Annexin V/propidium iodide-staining based flow cytometry (reference value: 0.45 +/- 0.01%); type: functional
[12] = tested on: HaCaT; experiment: Induction of apoptosis in human HaCaT cells assessed as late apoptotic cells at 40 nM after 24 hrs by Annexin V/propidium iodide-staining based flow cytometry (reference value: 0.93 +/- 0.04%); type: cell-based; conditions: 0.04 µM
[13] = Induction of apoptosis in human HaCaT cells assessed as viable cells at 40 nM after 24 hrs by Annexin V/propidium iodide-staining based flow cytometry (reference value: 95.63 +/- 3.83%); type: cell-based; conditions: read-out: Activity
[14] = tested on: NCI-H460; experiment: Induction of apoptosis in human NCI-H460 cells assessed as viable cells at 40 nM after 24 hrs by Annexin V/propidium iodide-staining based flow cytometry (reference value: 96.49 +/- 0.96%); type: functional; conditions: NCI-H460, 24 h, read-out: Activity
[15] = tested on: NCI-H460; experiment: Induction of apoptosis in human NCI-H460 cells assessed as late apoptotic cells at 40 nM after 24 hrs by Annexin V/propidium iodide-staining based flow cytometry (reference value: 0.93 +/- 0.04%); type: functional
[16] = tested on: NCI-H460; experiment: Induction of apoptosis in human NCI-H460 cells assessed as necrotic cells at 40 nM after 24 hrs by Annexin V/propidium iodide-staining based flow cytometry (reference value: 2.13 +/- 0.02%); type: functional

COc1cccc2c1C(=O)c1c(O)c3c(c(O)c1C2=O)C[C@@](O)(C(=O)CO)C[C@@H]3O[C@H]1C[C@H](N)[C@H](O)[C@H](C)O1 [DOXORUBICIN] gave an IC50 [1] of 760 nM, an Activity [2] of 11.03% and an IC50 [3] of 30 nM. The IC50 [4] was 350 nM, the IC50 [5] was 550 nM and the Activity [6] was 7.82%. For the same compound, the IC50 [7] was 40 nM, the IC50 [8] was 11800 nM and the IC50 [9] was 1890 nM. The IC50 [10] was 410 nM, the Activity [11] was 4.05% and the Activity [12] was 3.04%. For the same compound, the viability at 24 h, 0.04 µM [13] was 78.1%, the viability at 0.04 µM [14] was 85.1% and the Activity [15] was 4.11%. It also gave an Activity [16] of 6.7%.
